US12533353B2, “Methods of treatment of cancer comprising CDC7 inhibitors” (CARNA BIOSCIENCES, INC., priority 2018, dated 2026)
Read-outs that look alike come from different tables or passages of the source.

Experiments:
[1] = test system: Colo-205 colorectal adenocarcinoma cells; experiment: Sequential treatment: SRA141 pre-treatment then partner agent, ATPlite; assay type: cell-based, human
MOLM-13 cells [2] = experiment: as above; assay type: cell-based, human; details: 200 nM SRA141 pre-treatment 48 hrs compared to DMSO pre-treatment
Protocol: Flasks of MOLM-13 cells were pre-treated with SRA141 (1 μM and 200 nM) and DMSO control for 48 hrs; cells were washed and seeded into 384-well plates; plates left to incubate for 6 hrs, followed by treatment with trametinib or bexarotene six hours after plating as single agents. After 72 hrs, ATP levels were measured using ATPlite.

MOLM-13 cells [3] = experiment: Co-treatment combination screen, synergy score, ATPlite; assay type: cell-based, human; details: simultaneous combination treatment, 72 hours
Protocol: (§1) The combination screen was performed using the co-treatment dosing schedule for SRA141 and the partner compound. Both enhancee (SRA141) and enhancer (partner compound) were added at time zero (0 h). Cells were exposed to SRA141 and the enhancer for the entire 72-hour treatment time. All data points were collected via automated processes and were subject to quality control and analyzed using proprietary software.
(§2) The Growth Inhibition (GI) was utilized as a measure of cell growth. GI percentages are calculated by applying the following test and equation: […]
(§3) This formula is derived from the Growth Inhibition calculation used in the National Cancer Institute's NCI-60 high throughput screen. […] These GI calculations were used in all single agent and combination data analysis for the combination screen.
(§4) To measure combination effects in excess of Loewe additivity, a scalar measure was used to characterize the strength of synergistic interaction termed the Synergy Score. The Synergy Score is calculated as: Synergy Score=log fX log fYΣ max(0,Idata)(Idata−ILoewe)
(§5) The fractional inhibition for each component agent and combination point in the matrix is calculated relative to the median of all vehicle-treated control wells. The Synergy Score equation integrates the experimentally-observed activity volume at each point in the matrix in excess of a model surface numerically derived from the activity of the component agents using the Loewe model for additivity. Additional terms in the Synergy Score equation (above) are used to normalize for various dilution factors used for individual agents and to allow for comparison of synergy scores across an entire experiment. The inclusion of positive inhibition gating or an Idata multiplier removes noise near the zero effect level, and biases results for synergistic interactions at that occur at high activity levels. Combinations with higher maximum Growth Inhibition (GI) effects or those which are synergistic at low concentrations will have higher Synergy Scores. Those combinations with Synergy Scores that statistically supersede baseline self-cross values can be considered synergistic. The magnitude of GI effects may be linked to the growth rate of cells which varies for each cell line examined.
(§6) Loewe Volume Score is used to assess the overall magnitude of the combination interaction in excess of the Loewe additivity model. Loewe Volume is particularly useful when distinguishing synergistic increases in a phenotypic activity (positive Loewe Volume) versus synergistic antagonisms (negative Loewe Volume).

MOLM-13 = experiment: Combination of SRA141 with targeted agents, CTG and CTBlue, 72 hours, Bliss CI; assay type: cell-based; details: for combination effect with SRA141: MOLM-13, 72 hours
Protocol: The anti-apoptotic gene BCL-2 was inhibited in Molm-13 cells by treatment with 0.1 μM ABT-199 as previously described (see Examples 6 and 24). Cells were treated with 0.1 μM ABT-199 and SRA141 for 72 hours at SRA141 concentrations of 0.04 μM to 3.30 μM.

Colo-205 = experiment: as above; details: Colo-205, 72 hours
EOL-1 = experiment: AML 3D culture, 5 days; assay type: cell-based; details: EOL-1 cell line
Protocol: (§7) The activity of SRA141 was investigated in in vitro and ex vivo three-dimensional (3D) cultures prepared from three AML cell lines (EOL-1, Molm-16 and MV-4-11) and three AML PDX models (AM5512, AM7440 and AM7577), respectively. Tumor cultures were treated with SRA141 (0.08 to 33 μM) for 5 days.

MV-4-11 = experiment: AML 3D culture, 5 days; assay type: cell-based; details: MV-4-11 cell line
Protocol: as §7

Molm-16 = experiment: AML 3D culture, 5 days; assay type: cell-based; details: Molm-16 cell line
Protocol: as §7

AM5512 = experiment: AML PDX ex vivo 3D culture, 5 days; assay type: cell-based
Protocol: as §7

AM7440 = experiment: AML PDX ex vivo 3D culture, 5 days; assay type: cell-based
Protocol: as §7

AM7577 = experiment: AML PDX ex vivo 3D culture, 5 days; assay type: cell-based
Protocol: as §7

AML-blast progenitors = experiment: 3D growth in methylcellulose matrix, 14 days; assay type: cell-based
Protocol: (§8) The anti-proliferative activity of SRA141 (0.3-5 μM) was also evaluated in additional 3D growth studies conducted in a methylcellulose growth matrix using normal human myeloid (n=3) and AML-blast progenitors incubated for 14 days.

[4] = test system: normal human myeloid progenitors (normal bone marrow); experiment: 3D growth in methylcellulose matrix, 14 days; assay type: cell-based
Protocol: as §8

MV411 = experiment: Combination of SRA141 with targeted agents, CTG and CTBlue, 72 hours, Bliss CI; details: MV411, 72 hours
COLO-205 cells = experiment: Co-treatment combination screen, synergy score, ATPlite; assay type: cell-based, human; details: simultaneous combination treatment, 72 hours
Protocol: as §1, §2, §3, §4, §5, §6

SW620 = experiment: Combination of SRA141 with targeted agents, CTG and CTBlue, 72 hours, Bliss CI; details: SW620, 72 hours

With `CO[C@H]1C[C@@H]2CC[C@@H](C)[C@@](O)(O2)C(=O)C(=O)N2CCCC[C@H]2C(=O)O[C@H]([C@H](C)C[C@@H]2CC[C@@H](OCCO)[C@H](OC)C2)CC(=O)[C@H](C)/C=C(\C)[C@@H](O)[C@@H](OC)C(=O)[C@H](C)C[C@H](C)/C=C/C=C/C=C/1C` [everolimus] as the compound, how does the “EC50 fold change of partner agent” value ([1]; 200 nM SRA141 pre-treatment 48 hrs compared to DMSO pre-treatment) read?
Its value is 3.3.

And the “EC50 fold change of partner agent” value (MOLM-13 cells [2])?
Its value is 3.25.

Which “EC50 fold change of partner agent” value (MOLM-13 cells [2]) does the source give for `C=C(c1ccc(C(=O)O)cc1)c1cc2c(cc1C)C(C)(C)CCC2(C)C` [Bexarotene] here?
The value was 2.63.

What about the “synergy with SRA141” value (MOLM-13 cells [3]) of the same compound?
Its value is “strong synergies”.

What about the “combination effect with SRA141” value (MOLM-13) of the same compound?
Its value is “slight additive effects”.

What about the “combination effect with SRA141” value (Colo-205) of the same compound?
Its value is “antagonistic effect”.

`Cn1ncnc1[C@H]1c2n[nH]c(=O)c3cc(F)cc(c23)N[C@@H]1c1ccc(F)cc1` [BMN673] was tested. Which “synergy with SRA141” value (MOLM-13 cells [3]) did it give?
The value was “strong synergies”.

What does the source list for `N.N.[Cl][Pt][Cl]` [Cisplatin]?
IC50 (EOL-1): 640 nM; IC50 (MV-4-11): 620 nM; IC50 (Molm-16): 380 nM; IC50 (AM5512): 11.9 µM; IC50 (AM7440): 1340 nM; IC50 (AM7577): 4.18 µM

For `CC1(C)CCC(CN2CCN(c3ccc(C(=O)NS(=O)(=O)c4ccc(NCC5CCOCC5)c([N+](=O)[O-])c4)c(Oc4cnc5[nH]ccc5c4)c3)CC2)=C(c2ccc(Cl)cc2)C1` [ABT-199], which “synergy with SRA141” value (MOLM-13 cells [3]) is on record?
Its value is “strong synergies”.

And the “Combination Index” value (MOLM-13; 0.1 μM ABT-199 with SRA141 at 0.12, 0.37, 1.10 and 3.30 μM, 72 hours)?
The value was “less than 1”.

And the “combination effect with SRA141” value (MOLM-13)?
Its value is “act synergistically”.

How did the IC50 (EOL-1; Homo sapiens, EOL1) turn out when `Nc1ccn([C@@H]2O[C@H](CO)[C@@H](O)[C@@H]2O)c(=O)n1` [Cytarabine, cytosine arabinoside, reference compound] was run?
The IC50 was 2 nM.

And the IC50 (MV-4-11; Homo sapiens, MV4-11)?
The IC50 was 50 nM.

What about the IC50 (Molm-16; MOLM16) of the same compound?
The IC50 was 70 nM.

And the IC50 (AM5512)?
The IC50 was 8.89 µM.

What about the IC50 (AM7440) of the same compound?
The IC50 was 270 nM.

What about the “primary AML samples responding with a Therapeutic Index [(Primary AML IC50)÷(BMNC control IC50)]” value (AML-blast progenitors; 9 primary AML samples) of the same compound?
The value was 2 out of 9.

What about the IC50 (AML-blast progenitors; AML810 censored, read-out: mean IC50, AML samples) of the same compound?
Its IC50 is ~4 nM.

What about the IC50 (AML-blast progenitors; AML-blast progenitor 180, read-out: IC50) of the same compound?
Its IC50 is 3.6 nM.

What about the IC50 (AML-blast progenitors; AML-blast progenitor 190, read-out: IC50) of the same compound?
The IC50 was 6.1 nM.

And the IC50 (AML-blast progenitors; AML-blast progenitor 200, read-out: IC50)?
The IC50 was 2.8 nM.

And the IC50 (AML-blast progenitors; AML-blast progenitor 250, read-out: IC50)?
The IC50 was 2.2 nM.

And the IC50 (AML-blast progenitors; AML-blast progenitor 260, read-out: IC50)?
The IC50 was 3 nM.

And the IC50 (AML-blast progenitors; AML-blast progenitor 717, read-out: IC50)?
Its IC50 is 3.8 nM.

What about the IC50 (AML-blast progenitors; AML-blast progenitor 810 (sample censored), read-out: IC50) of the same compound?
The IC50 was 9.6 nM.

And the IC50 (AML-blast progenitors; AML-blast progenitor 915, read-out: IC50)?
Its IC50 is 8.1 nM.

And the IC50 (AML-blast progenitors; AML-blast progenitor 917, read-out: IC50)?
Its IC50 is 5.7 nM.

And the IC50 (AML-blast progenitors; with AML 810, read-out: Mean AML-blast progenitor IC50 (with AML 810))?
The IC50 was 5 ± 2.6 nM.

And the IC50 (AML-blast progenitors; without AML 810, read-out: Mean AML-blast progenitor IC50 (without AML 810))?
Its IC50 is 4.4 ± 2 nM.

And the IC50 ([4]; Normal bone marrow 111, read-out: IC50)?
Its IC50 is 4.8 nM.

What about the IC50 ([4]; Normal bone marrow 525 (first line), read-out: IC50) of the same compound?
The IC50 was 3.7 nM.

And the IC50 ([4]; Normal bone marrow 525 (second line), read-out: IC50)?
The IC50 was 3.8 nM.

What about the IC50 ([4]; mean of 3 samples, read-out: Mean normal bone marrow IC50) of the same compound?
Its IC50 is 4.1 ± 0.6 nM.

What about the IC50 ([4]; read-out: mean IC50, normal bone marrow preparations) of the same compound?
The IC50 was ~4 nM.

What does the source list for `CC1=C(/C=C/C(C)=C/C=C/C(C)=C/C(=O)O)C(C)(C)CCC1` [Tretinoin]?
combination effect with SRA141 (MOLM-13): slight additive effects; combination effect with SRA141 (MV411): slight additive effects

`COc1c(OCCCN2CCOCC2)ccc2c1N=C(NC(=O)c1cnc(N)nc1)N1CCN=C21` [Copanlisib] was tested. Which “synergy with SRA141” value (COLO-205 cells) did it give?
The value was “Strong synergies”.

And the “combination effect with SRA141” value (MOLM-13)?
Its value is “slight additive effects”.

What about the “combination effect with SRA141” value (Colo-205) of the same compound?
Its value is “slight additive effect”.

What about the “combination effect with SRA141” value (SW620) of the same compound?
Its value is “slight additive effects”.

What about the “combination effect with SRA141” value (MV411) of the same compound?
Its value is “slight additive effects”.

For `C[C@@]1(CO)[C@H](O)CC[C@@]2(C)[C@H]1CC[C@H]1C[C@@H]3C[C@@]12CC[C@]3(O)CO` [aphidicolin], which “EC50 fold change of partner agent” value ([1]; 1 μM SRA141 pre-treatment 48 hrs compared to DMSO pre-treatment) is on record?
The value was 4.60.

With `CC(=O)Nc1cccc(-n2c(=O)n(C3CC3)c(=O)c3c(Nc4ccc(I)cc4F)n(C)c(=O)c(C)c32)c1` [Trametinib] as the compound, how does the “EC50 fold change of partner agent” value (MOLM-13 cells [2]) read?
Its value is 2.63.
